Experiments:
Assay in all cases: Field trial weekly bioassay on pre-treated substrate
Type in all cases: in vivo
[1] = tested on: Aedes albopictus; design: concentration or dose not given beside the values
Method: (§1) During a field trial in New Orleans, bioassays were performed with (1) the expanded, milled ultrafine perlite of Example 1, (2) a lambda-cyhalothrin insecticide (BASF) as positive control, and (3) a negative control (water only). Six samples of each insecticide (1) and (2) and the control (3) were tested against mosquito species Aedes aegypti (dengue and zika vector), Aedes albopictus (tiger mosquito), and Culex quinquefasciatus (nuisance mosquito) by spraying wood chips stored under houses using a STIHL SR 200 backpack sprayer (18 houses total). The houses were selected based on housing structure (raised house), backyard vegetation (green and lush), and location (suburban neighborhood).
(§2) The lambda cyhalothrin (industry standard insecticide) was prepared according to manufacturer instructions. Lambda cyhalothrin insecticide was diluted with water for spray application. First the application tank was filled with one-half to three-fourths volume of water. The pH of the water was controlled between 5 and 7 using a buffering agent if necessary to adjust the pH. Next, lambda cyhalothrin insecticide was slowly added to the applicator tank water with maximum agitation. Finally, the tank was filled to the desired volume with continuous agitation while applying the spray. To prepare the perlite insecticide spraying solutions, two-thirds of a gallon of water, 0.32 ounces of non-ionic surfactant (Ninex MT615), and 2 lbs expanded, milled ultrafine perlite were thoroughly blended together in a spray tank. Another one-third gallon of water was then added for a total 1 gallon of spray solution containing 20% of ultrafine perlite mechanical insecticide, 79% of water and 1% of Ninex MT615 as dispersant. The ultrafine perlite solution was mixed directly prior to spraying.
(§3) The ultrafine perlite insecticide, the positive control (lambda cyhalothrin) and the negative control (water) were sprayed directly under the raised houses and porches (which included eaves if reachable) and under vegetation with an applicator. Pre-treated substrates were also prepared for each location by applying the corresponding insecticide or control to a piece of pine. The target coverage was 5-8 ounces per 100 ft^2, with an average coverage of about 10 g/m^2 to 15 g/m^2.
(§4) Adult mosquitos for each species were introduced to each location, and were identified and counted two weeks prior to the start of the bioassays. Weekly bioassays were performed to test the efficacy of the insecticides over time by collecting a pre-treated substrate from each site and placing ˜10 female mosquitos of the corresponding species into a labeled bioassay cup with the substrate. The cup was then placed in a growth chamber/counter (depending on temperature) for 1 hour and then 24 hours with sugar solution. The number of dead and live mosquitos was recorded and compared to determine the percent mortality. Results are shown in Tables 8-10, in which 100% indicates complete mortality of mosquitoes and 0% indicates zero mortality (no mosquito deaths).

[2] = tested on: Culex quinquefasciatus; design: concentration or dose not given beside the values
Method: as §1, §2, §3, §4

[3] = tested on: Aedes aegypti; design: mortality found (summary of field trial): concentration or dose not given beside the values
Method: as §1, §2, §3, §4

[4] = Week 0, ~10 female mosquitos with pre-treated substrate
[5] = week not stated, each mosquito species

Structure (SMILES): CC1(C)[C@H](C(=O)O[C@H](C#N)c2cccc(Oc3ccccc3)c2)[C@@H]1/C=C(\Cl)C(F)(F)F (racemic) [Lambda cyhalothrin, lambda-cyhalothrin]
- Mortality (%) of Andes albopictus [1, 4]: 0%
- Mortality (%) of Andes albopictus ([1]; Week 1): 0%
- Mortality (%) of Andes albopictus ([1]; Week 2): 100%
- Mortality (%) of Andes albopictus ([1]; Week 3): 100%
- Mortality (%) of Andes albopictus ([1]; Week 4): 100%
- Mortality (%) of Andes albopictus ([1]; Week 5 (heavy rainfall)): 100%
- Mortality (%) of Andes albopictus ([1]; Week 6): 100%
- Mortality (%) of Andes albopictus ([1]; Week 7): 100%
- Mortality (%) of Andes albopictus ([1]; Week 8): 100%
- mortality found (summary of field trial) [1, 5]: 100%
- Mortality (%) of Culex quinquefasciatus [2, 4]: 0%
- Mortality (%) of Culex quinquefasciatus ([2]; Week 1): 0%
- Mortality (%) of Culex quinquefasciatus ([2]; Week 2): 100%
- Mortality (%) of Culex quinquefasciatus ([2]; Week 3): 100%
- Mortality (%) of Culex quinquefasciatus ([2]; Week 4): 97%
- Mortality (%) of Culex quinquefasciatus ([2]; Week 5 (heavy rainfall)): 100%
- Mortality (%) of Culex quinquefasciatus ([2]; Week 6): 93%
- Mortality (%) of Culex quinquefasciatus ([2]; Week 7): 100%
- Mortality (%) of Culex quinquefasciatus ([2]; Week 8): 100%
- mortality found (summary of field trial) [2, 5]: 100%
- Mortality (%) of Andes aegypti [3, 4]: 0%
- Mortality (%) of Andes aegypti ([3]; Week 1): 0%
- Mortality (%) of Andes aegypti ([3]; Week 2): 100%
- Mortality (%) of Andes aegypti ([3]; Week 3): 100%
- Mortality (%) of Andes aegypti ([3]; Week 4): 100%
- Mortality (%) of Andes aegypti ([3]; Week 5 (heavy rainfall)): 100%
- Mortality (%) of Andes aegypti ([3]; Week 6): 100%
- Mortality (%) of Andes aegypti ([3]; Week 7): 100%
- Mortality (%) of Andes aegypti ([3]; Week 8): 100%
- mortality found (summary of field trial) [3, 5]: 100%

Reference: US11350632B2, “Methods, compositions and systems for killing arthropods” (Imerys USA, Inc., priority 2016, dated 2022)
